Values after ≈ are worked out from the molar mass of the structure shown.
Tests used:
[1] = tested on: Ec ATCC 25922; experiment: BMD susceptibility test; assay type: cell-based, Escherichia coli; conditions: unit assumed
[2] = tested on: alveolar lavage fluid sample 0203, K. pneumoniae; experiment: FaAST (FDAA) susceptibility test of patient alveolar lavage fluid; assay type: cell-based, Klebsiella pneumoniae; conditions: unit assumed
Procedure: (§1) With reference to the flow chart of the rapid detection method of antimicrobial susceptibility test based on FDAA metabolic markers shown in FIG. 3, FDAA is used for the detection of antimicrobial susceptibility test of alveolar lavage fluid. The specific experimental steps are as follows: • 1. Mix bronchoalveolar lavage fluid (BALF, 10 ml) of patients with hospital acquired pneumonia with cation regulated broth medium (CAMHB, 10 ml) of twice the concentration to prepare the bacterial fluid to be tested. • 2. Add 45 μl antibiotic solutions of different concentrations to the 96-well plate separately (see Table 1 for antibiotic concentration gradient settings). • 3. Add 50 μl of the bacterial solution prepared in step 1 to the 96-well plate and mix well. • 4. Add 5 μl of 10 mM Cy5-DAA probe (final concentration 0.15 mM, see FIG. 1 for its structure) into each well, mix well, and then cultivate in dark for 2 hours. • 5. Add 200 μl PBS solution for dilution, and then use flow cytometry to detect the fluorescence intensity of each sample.
(§2) The results of antimicrobial susceptibility test of alveolar lavage fluid of seven patients using FDAA and BMD methods are shown in the following table. The drug-resistant bacteria are shown in bold.

[3] = tested on: alveolar lavage fluid sample 0226, K. pneumoniae; experiment: as above; assay type: cell-based, Klebsiella pneumoniae; conditions: unit assumed
Procedure: as §1, §2

[4] = tested on: E. coli Ec13; experiment: BMD susceptibility test; assay type: cell-based, Escherichia coli; conditions: unit assumed
[5] = tested on: A. baumannii Ab16; experiment: FaAST (FDAA metabolic labeling); assay type: cell-based, Acinetobacter baumannii; conditions: unit assumed
Procedure: (§3) The specific experimental steps are as follows: • 1. Take the colony to be tested that has been cultured overnight on the plate and fully mix it in normal saline to make a uniform bacterial solution. Dilute it into CAMHB medium to make a bacterial solution with OD600=0.05. • 2. Add 45 μl antibiotic solutions to be tested of different concentrations to 96-well plates (see Table 3 for antibiotic concentration gradient settings). • 3. Add 50 μl of bacterial solution prepared in Step 1 to the 96-well plate and mix well. • 4.5 μl of 10 mM Cy5-DAA probe was added to each well (final concentration was 0.15 mM, and its structure was shown in FIG. 1). After mixing, the probe was incubated for 2 hours in the dark. • 5. After dilution with 200 μl PBS solution, the fluorescence intensity of each sample was detected by flow cytometry.

[6] = tested on: E.coli 1146; experiment: FDAA metabolic labeling susceptibility test (Cy5-DAA probe, flow cytometry); assay type: cell-based, Escherichia coli; conditions: Escherichia coli, 1146, 2 h, read-out: MIC, FDAA
Procedure: as §3, with “cytometry. The flow detection results are shown in the attached FIG. 4-5, showing the curve of antibiotic concentration gradient and fluorescence intensity, and the MIC (minimum inhibitory concentration) is obtained by referring to this curve.” for “cytometry.”

[7] = tested on: E.coli 1113; experiment: as above; assay type: cell-based, Escherichia coli; conditions: Escherichia coli, 1113, 2 h, read-out: MIC, FDAA
Procedure: as §3, with “cytometry. The flow detection results are shown in the attached FIG. 4-5, showing the curve of antibiotic concentration gradient and fluorescence intensity, and the MIC (minimum inhibitory concentration) is obtained by referring to this curve.” for “cytometry.”

[8] = tested on: alveolar lavage fluid sample 0204, A. baumannii; experiment: BMD susceptibility test of patient alveolar lavage fluid; assay type: cell-based, Acinetobacter baumannii; conditions: unit assumed
[9] = tested on: bacteria contained in alveolar lavage fluid; experiment: FDAA metabolic labeling susceptibility test of alveolar lavage fluid (Cy5-DAA probe); assay type: cell-based; conditions: alveolar lavage fluid of patients with hospital acquired pneumonia, 2 hours
Procedure: as §1

[10] = tested on: alveolar lavage fluid sample 0206, A. baumannii; experiment: BMD susceptibility test of patient alveolar lavage fluid; assay type: cell-based, Acinetobacter baumannii; conditions: unit assumed
From the text: as §2

[11] = tested on: alveolar lavage fluid sample 0219, A. baumannii; experiment: as above; assay type: cell-based, Acinetobacter baumannii; conditions: unit assumed
From the text: as §2

[12] = tested on: alveolar lavage fluid sample 0130, A. baumannii; experiment: as above; assay type: cell-based, Acinetobacter baumannii; conditions: unit assumed
From the text: as §2

[13] = tested on: alveolar lavage fluid sample 0206, A. baumannii; experiment: FaAST (FDAA) susceptibility test of patient alveolar lavage fluid; assay type: cell-based, Acinetobacter baumannii; conditions: unit assumed
Procedure: as §1, §2

[14] = tested on: alveolar lavage fluid sample 0204, A. baumannii; experiment: as above; assay type: cell-based, Acinetobacter baumannii; conditions: unit assumed
Procedure: as §1, §2

[15] = tested on: alveolar lavage fluid sample 0219, A. baumannii; experiment: as above; assay type: cell-based, Acinetobacter baumannii; conditions: unit assumed
Procedure: as §1, §2

[16] = tested on: alveolar lavage fluid sample 0130, A. baumannii; experiment: as above; assay type: cell-based, Acinetobacter baumannii; conditions: unit assumed
Procedure: as §1, §2

[17] = tested on: E. coli Ec13; experiment: FaAST (FDAA metabolic labeling); assay type: cell-based, Escherichia coli; conditions: unit assumed
Procedure: as §3

[18] = tested on: A. baumannii Ab16; experiment: BMD susceptibility test; assay type: cell-based, Acinetobacter baumannii; conditions: unit assumed
[19] = tested on: A. baumannii Ab19; experiment: FaAST (FDAA metabolic labeling); assay type: cell-based, Acinetobacter baumannii; conditions: unit assumed
Procedure: as §3, with “cytometry. The flow detection results are shown in the attached FIG. 4-5, showing the curve of antibiotic concentration gradient and fluorescence intensity, and the MIC (minimum inhibitory concentration) is obtained by referring to this curve.” for “cytometry.”
(§4) Antibiotic resistant strains are shown in bold in the table below.

[20] = tested on: E. coli Ec11; experiment: FaAST (FDAA metabolic labeling); assay type: cell-based, Escherichia coli; conditions: unit assumed
Procedure: as §3, with “cytometry. The flow detection results are shown in the attached FIG. 4-5, showing the curve of antibiotic concentration gradient and fluorescence intensity, and the MIC (minimum inhibitory concentration) is obtained by referring to this curve.” for “cytometry.”
as §4

[21] = tested on: Ec ATCC 25922; experiment: FaAST (FDAA metabolic labeling); assay type: cell-based, Escherichia coli; conditions: unit assumed
Procedure: as §3, with “cytometry. The flow detection results are shown in the attached FIG. 4-5, showing the curve of antibiotic concentration gradient and fluorescence intensity, and the MIC (minimum inhibitory concentration) is obtained by referring to this curve.” for “cytometry.”
as §4

[22] = tested on: bacteria contained in alveolar lavage fluid; experiment: Vitek 2 drug sensitivity test of alveolar lavage fluid; assay type: cell-based; on Sensibility: key: S: Drug sensitive; R: Drug resistance
[23] = tested on: E.coli 1146; experiment: Vitek 2 drug sensitivity test; assay type: cell-based, Escherichia coli; on Sensibility: key: S: Drug sensitive; R: Drug resistance
[24] = tested on: E. coli Ec11; experiment: BMD susceptibility test; assay type: cell-based, Escherichia coli; conditions: unit assumed
[25] = tested on: E.coli 1113; experiment: Vitek 2 drug sensitivity test; assay type: cell-based, Escherichia coli; on Sensibility: key: S: Drug sensitive; R: Drug resistance
[26] = tested on: A. baumannii Ab19; experiment: BMD susceptibility test; assay type: cell-based, Acinetobacter baumannii; conditions: unit assumed
[27] = tested on: K. pneumoniae Kp6; experiment: BMD susceptibility test; assay type: cell-based, Klebsiella pneumoniae; conditions: unit assumed
[28] = tested on: Ec ATCC 25922; conditions: cited from earlier work
[29] = tested on: alveolar lavage fluid sample 0203, K. pneumoniae; experiment: BMD susceptibility test of patient alveolar lavage fluid; assay type: cell-based, Klebsiella pneumoniae; conditions: unit assumed
From the text: as §2

[30] = tested on: alveolar lavage fluid sample 0226, K. pneumoniae; experiment: as above; assay type: cell-based, Klebsiella pneumoniae; conditions: unit assumed
From the text: as §2

[31] = tested on: K. pneumoniae Kp9; experiment: BMD susceptibility test; assay type: cell-based, Klebsiella pneumoniae; conditions: unit assumed
[32] = tested on: K. pneumoniae Kp9; experiment: FaAST (FDAA metabolic labeling); assay type: cell-based, Klebsiella pneumoniae; conditions: unit assumed
Procedure: as §3

[33] = tested on: K. pneumoniae Kp6; experiment: FaAST (FDAA metabolic labeling); assay type: cell-based, Klebsiella pneumoniae; conditions: unit assumed
Procedure: as §3

[34] = tested on: S. aureus ST59; experiment: Vitek 2 drug sensitivity test; assay type: cell-based, Staphylococcus aureus; on Sensibility: key: S: Drug sensitive; R: Drug resistance
[35] = tested on: S. aureus ST59; experiment: FDAA metabolic labeling susceptibility test (Cy5-DAA probe, flow cytometry); assay type: cell-based; conditions: Staphylococcus aureus; S. aureus ST59; Cy5-DAA probe, 2 hours; read-out: MIC, FDAA
Procedure: (§5) Take the colony to be tested that has been cultured overnight on the plate and fully mix it in normal saline to make a uniform bacterial solution. Dilute it into Cation-Adjusted Mueller Hinton Broth (CAMHB) culture medium to make a bacterial solution with OD600=0.05. • 2. Add 45 μl antibiotic solutions of different concentrations to 96-well plates (see Table 1 for antibiotic concentration gradient settings). • 3. Add 50 μl of the bacterial solution prepared in step 1 to the 96-well plate and mix well. • 4. Add 5 μl of 10 mM Cy5-DAA probe (final concentration 0.15 mM, see FIG. 1 for its structure) into each well, mix well, and cultivate in dark for 2 hours. • 5. Add 200 μl After PBS solution is diluted, the fluorescence intensity of each sample is detected by flow cytometry. The flow detection results are shown in FIG. 4-5, showing the curve of the change of antibiotic concentration gradient and fluorescence intensity. The MIC (minimum inhibitory concentration) can be obtained by referring to this curve.

[36] = tested on: S. aureus ST398; experiment: as above; assay type: cell-based; conditions: Staphylococcus aureus; S. aureus ST398; Cy5-DAA probe, 2 hours; read-out: MIC, FDAA
Procedure: as §5

[37] = tested on: E. faecalis ATCC29212; experiment: FaAST (FDAA metabolic labeling method); assay type: cell-based, Enterococcus faecalis; conditions: unit assumed
Procedure: as §5
(§6) Bacteria with antibiotic resistance are shown in bold in the following table.

[38] = tested on: E. faecium Ef26; experiment: BMD susceptibility test; assay type: cell-based, Enterococcus faecium; conditions: unit assumed
[39] = tested on: E. faecalis ATCC29212; experiment: BMD susceptibility test; assay type: cell-based, Enterococcus faecalis; conditions: unit assumed
[40] = tested on: E. faecium Ef26; experiment: FaAST (FDAA metabolic labeling method); assay type: cell-based, Enterococcus faecium; conditions: unit assumed
Procedure: as §5, §6

[41] = tested on: S. aureus ST398; experiment: Vitek 2 drug sensitivity test; assay type: cell-based, Staphylococcus aureus; on Sensibility: key: S: Drug sensitive; R: Drug resistance
[42] = tested on: E. faecalis ATCC29212; conditions: cited from earlier work

CN(C)c1cc(NC(=O)CNC(C)(C)C)c(O)c2c1C[C@H]1C[C@H]3[C@H](N(C)C)C(O)=C(C(N)=O)C(=O)[C@@]3(O)C(O)=C1C2=O [Tigecycline, tigecycline]
BMD (MIC) [1]: ≤ 0.25 µg/mL
FaAST (MIC) [2]: 0.125 µg/mL
FaAST (MIC) [3]: 0.5 µg/mL
BMD (MIC) [4]: ≤ 0.25 µg/mL
FaAST (MIC) [5]: ≤ 0.25 µg/mL
MIC [6]: 0.25 µg/mL (≈ 0.427 µM)
MIC [7]: 1 µg/mL (≈ 1.71 µM)
BMD (MIC) [8]: 0.5 µg/mL
MIC, FDAA [9]: 4 µg/mL (≈ 6.83 µM)
BMD (MIC) [10]: 1 µg/mL
BMD (MIC) [11]: 1 µg/mL
BMD (MIC) [12]: 2 µg/mL
FaAST (MIC) [13]: 8 µg/mL
FaAST (MIC) [14]: 0.5 µg/mL
FaAST (MIC) [15]: 64 µg/mL
FaAST (MIC) [16]: 2 µg/mL
FaAST (MIC) [17]: ≤ 0.25 µg/mL
BMD (MIC) [18]: ≤ 0.25 µg/mL
FaAST (MIC) [19]: 0.5 µg/mL
FaAST (MIC) [20]: ≤ 0.25 µg/mL
FaAST (MIC) [21]: ≤ 0.25 µg/mL
MIC [22]: 2 µg/mL (≈ 3.41 µM)
Sensibility [22]: S
Sensibility [23]: S
MIC ([23]; Escherichia coli): ≤ 0.25 µg/mL
BMD (MIC) [24]: ≤ 0.25 µg/mL
MIC, Vitek 2 [25]: < 1 µg/mL
Sensibility [25]: S
BMD (MIC) [26]: ≤ 0.25 µg/mL
BMD (MIC) [27]: ≤ 0.25 µg/mL
CLSI QC range [28]: 0.03-0.25
BMD (MIC) [29]: 1 µg/mL
BMD (MIC) [30]: 1 µg/mL
BMD (MIC) [31]: 0.5 µg/mL
FaAST (MIC) [32]: 0.25 µg/mL
FaAST (MIC) [33]: ≤ 0.25 µg/mL

CC[C@H]1OC(=O)[C@H](C)[C@@H](O[C@H]2C[C@@](C)(OC)[C@@H](O)[C@H](C)O2)[C@H](C)[C@@H](O[C@@H]2O[C@H](C)C[C@H](N(C)C)[C@H]2O)[C@](C)(O)C[C@@H](C)C(=O)[C@H](C)[C@@H](O)[C@]1(C)O [Erythromycin, erythromycin]
Sensibility [34]: R
MIC ([34]; Staphylococcus aureus): ≥ 8 µg/mL
MIC [35]: 8 µg/mL (≈ 10.9 µM)
MIC [36]: 0.5 µg/mL (≈ 0.681 µM)
FaAST (MIC) [37]: 2 µg/mL
BMD (MIC) [38]: ≤ 0.25 µg/mL
BMD (MIC) [39]: 2 µg/mL
FaAST (MIC) [40]: ≤ 0.25 µg/mL
Sensibility [41]: S
MIC ([41]; Staphylococcus aureus): ≤ 0.25 µg/mL
CLSI QC range [42]: 1-4
